Source: ChEMBL document CHEMBL1201862, “PubChem BioAssay data set” (2004)
The source made the active and inactive calls.

Columns and labels:
[1] = biological target: T1, Polyadenylate-binding protein 1 (Homo sapiens, UniProt P11940); assay: PABP1 MLLE–PAM2 binding inhibitor potency, dose response, biochemical, fluorescence polarization, FITC-PAM2 peptide (AID 602259); assay type: functional; conditions: read-out: IC50_Mean
[2] = biological target: T1, Polyadenylate-binding protein 1; assay: PABP1 MLLE–PAM2 interaction inhibitors, dose response, miRNA deadenylation inhibitor project, biochemical, fluorescence polarization, Cy5-PAM2 peptide, secondary (AID 602260); assay type: functional; conditions: read-out: IC50_Mean
Streptococcus = assay: Group A Streptococcus viability loss, dose response, counter-screen for streptokinase expression inhibitor project, luminescence, BacTiterGlo (AID 1915); assay type: functional, organism-based;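 also: potency for reduction of bacterial viability or growth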
[3] = microbe, parasite or virus in culture; assay type: functional; conditions: Mycobacterium tuberculosis
[4] = test system: Streptococcus sp. 'group A'; assay: growth inhibition of control SK(-) GAS strain, dose response, counter-screen for streptokinase expression inhibitor project, luminescence, kanamycin, BacTiterGlo, confirmation (AID 1900); assay type: functional, organism-based
Streptokinase A = biological target: T2, Streptokinase A (Streptococcus pyogenes serotype M1, UniProt P10520); assay: S. pyogenes streptokinase expression inhibitors, potency, dose response, plasminogen activation absorbance, OD405 (AID 1914); assay type: functional, Streptococcus pyogenes M1 GAS;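 also: secreted streptokinase activity via plasminogen activation per viability signal from cell pellet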
T2 sequence (P10520 whole entry): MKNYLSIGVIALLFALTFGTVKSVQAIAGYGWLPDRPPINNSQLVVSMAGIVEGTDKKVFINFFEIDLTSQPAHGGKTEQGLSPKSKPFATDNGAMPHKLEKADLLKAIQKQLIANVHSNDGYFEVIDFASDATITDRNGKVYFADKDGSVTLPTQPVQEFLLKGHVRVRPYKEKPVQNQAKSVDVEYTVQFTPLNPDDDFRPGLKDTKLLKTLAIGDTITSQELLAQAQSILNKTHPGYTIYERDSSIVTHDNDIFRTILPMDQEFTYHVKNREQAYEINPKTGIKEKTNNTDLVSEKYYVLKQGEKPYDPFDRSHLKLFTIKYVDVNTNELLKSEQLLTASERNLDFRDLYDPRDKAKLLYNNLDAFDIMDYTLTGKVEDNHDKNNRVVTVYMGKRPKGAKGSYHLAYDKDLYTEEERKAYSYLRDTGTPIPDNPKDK

Protein RecA = biological target: T3, Protein RecA (Mycobacterium tuberculosis, UniProt P9WHJ3); assay: Fluorescence Cell-Free Homogeneous Dose Retest to Identify Inhibitors of RecA-Intein Splicing Activity. [Related pubchem assays (depositor defined):AID2097, AID2223, AID489010, AID492950]; assay type: functional
T3 sequence (P9WHJ3 whole entry): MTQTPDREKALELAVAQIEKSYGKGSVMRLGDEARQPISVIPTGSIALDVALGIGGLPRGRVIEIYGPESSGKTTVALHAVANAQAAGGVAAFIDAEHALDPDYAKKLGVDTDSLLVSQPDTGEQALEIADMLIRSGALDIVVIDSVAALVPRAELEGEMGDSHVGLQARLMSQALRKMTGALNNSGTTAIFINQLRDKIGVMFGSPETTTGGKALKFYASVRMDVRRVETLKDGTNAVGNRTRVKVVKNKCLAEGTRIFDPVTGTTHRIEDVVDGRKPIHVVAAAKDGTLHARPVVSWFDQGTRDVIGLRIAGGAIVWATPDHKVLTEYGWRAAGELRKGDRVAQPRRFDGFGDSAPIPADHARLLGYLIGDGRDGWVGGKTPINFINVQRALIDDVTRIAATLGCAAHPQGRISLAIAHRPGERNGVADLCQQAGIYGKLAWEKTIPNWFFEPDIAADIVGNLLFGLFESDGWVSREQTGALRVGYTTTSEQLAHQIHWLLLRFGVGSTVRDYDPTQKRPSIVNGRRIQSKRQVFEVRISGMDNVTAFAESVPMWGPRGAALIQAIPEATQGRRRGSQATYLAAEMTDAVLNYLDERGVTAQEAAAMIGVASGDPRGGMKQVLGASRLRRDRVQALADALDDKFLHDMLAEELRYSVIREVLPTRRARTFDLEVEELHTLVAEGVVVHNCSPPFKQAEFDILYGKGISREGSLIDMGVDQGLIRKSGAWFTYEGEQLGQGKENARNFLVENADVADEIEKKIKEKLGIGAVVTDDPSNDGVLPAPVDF

[5] = biological target: T4, Replicative DNA helicase DnaB (Mycobacterium tuberculosis, UniProt P9WMR3); assay: DnaB intein splicing inhibitors, dose response, biochemical, cell-free fluorescence (AID 449749); assay type: functional
T4 sequence (P9WMR3 whole entry): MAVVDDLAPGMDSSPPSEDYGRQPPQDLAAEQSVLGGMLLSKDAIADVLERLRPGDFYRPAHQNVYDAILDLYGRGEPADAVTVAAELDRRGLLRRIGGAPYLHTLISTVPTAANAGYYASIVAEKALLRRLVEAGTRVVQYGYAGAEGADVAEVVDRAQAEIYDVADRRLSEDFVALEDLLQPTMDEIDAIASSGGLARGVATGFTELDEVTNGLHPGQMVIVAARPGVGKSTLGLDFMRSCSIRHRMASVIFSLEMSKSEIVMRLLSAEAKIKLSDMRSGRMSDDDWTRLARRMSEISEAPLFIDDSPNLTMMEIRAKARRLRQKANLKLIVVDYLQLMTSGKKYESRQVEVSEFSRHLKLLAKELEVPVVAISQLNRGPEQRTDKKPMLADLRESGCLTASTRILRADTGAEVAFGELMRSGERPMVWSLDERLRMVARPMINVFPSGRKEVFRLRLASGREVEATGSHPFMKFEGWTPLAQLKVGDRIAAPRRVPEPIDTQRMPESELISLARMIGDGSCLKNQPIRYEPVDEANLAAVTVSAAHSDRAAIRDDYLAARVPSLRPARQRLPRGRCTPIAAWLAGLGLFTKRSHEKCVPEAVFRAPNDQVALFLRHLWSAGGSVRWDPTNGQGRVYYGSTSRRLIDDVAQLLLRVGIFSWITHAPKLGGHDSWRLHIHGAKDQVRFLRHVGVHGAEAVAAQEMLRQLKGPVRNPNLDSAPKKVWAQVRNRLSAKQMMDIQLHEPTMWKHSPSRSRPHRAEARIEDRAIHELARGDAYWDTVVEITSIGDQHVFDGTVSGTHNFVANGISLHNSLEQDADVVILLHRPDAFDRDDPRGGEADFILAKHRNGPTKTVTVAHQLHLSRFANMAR

H9c2 = assay: cells; assay type: functional, cell-based; conditions: Rattus norvegicus, H9c2, Myocardium;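 also: confirmatory concentration-response retest of ultra-high-throughput screening hits for modulation of myocardial damage; cell death induced by hydrogen peroxide oxidative stress; compound pretreatment for 60 min then peroxide exposure for 2 h; potency is for protecting the cells against peroxide damage rather than for killing them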
cells = assay type: functional
[6] = biological target: T5, RNA-binding protein pos-1 (Caenorhabditis elegans, UniProt G5EF15); assay: inhibitors of POS-1/mex-3 RNA binding, dose response, biochemical, fluorescence polarization (AID 1964);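 also: purified POS-1 fused to maltose binding protein made in E. coli; potency of compounds blocking POS-1 binding to fluorescent RNA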
T5 sequence (G5EF15 whole entry): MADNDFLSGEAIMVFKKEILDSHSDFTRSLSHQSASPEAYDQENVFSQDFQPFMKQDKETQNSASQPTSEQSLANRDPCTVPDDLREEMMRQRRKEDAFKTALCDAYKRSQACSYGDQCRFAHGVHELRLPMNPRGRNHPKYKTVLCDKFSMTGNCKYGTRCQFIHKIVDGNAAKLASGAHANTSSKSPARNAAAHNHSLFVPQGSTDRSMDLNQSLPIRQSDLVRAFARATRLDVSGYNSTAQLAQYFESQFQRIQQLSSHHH

[7] = biological target: T6, Zinc finger protein mex-5 (Caenorhabditis elegans, UniProt Q9XUB2); assay: MEX-5/TCR-2 RNA interaction inhibitors, dose response, biochemical, C. elegans, fluorescence polarization (AID 1960)
T6 sequence (Q9XUB2 whole entry): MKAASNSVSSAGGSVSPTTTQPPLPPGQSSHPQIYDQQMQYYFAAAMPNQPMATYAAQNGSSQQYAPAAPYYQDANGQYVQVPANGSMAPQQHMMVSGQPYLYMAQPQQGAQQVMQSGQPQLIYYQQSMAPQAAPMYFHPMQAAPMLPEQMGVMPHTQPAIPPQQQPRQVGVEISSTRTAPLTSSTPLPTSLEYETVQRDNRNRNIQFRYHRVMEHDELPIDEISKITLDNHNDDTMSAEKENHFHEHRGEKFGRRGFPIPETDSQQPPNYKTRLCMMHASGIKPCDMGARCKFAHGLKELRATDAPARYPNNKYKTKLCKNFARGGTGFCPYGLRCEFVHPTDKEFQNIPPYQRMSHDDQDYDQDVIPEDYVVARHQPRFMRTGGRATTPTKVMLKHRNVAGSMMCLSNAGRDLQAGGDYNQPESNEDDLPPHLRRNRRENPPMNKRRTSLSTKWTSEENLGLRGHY

[8] = Luminescence Cell-Based Dose Retest to Confirm Inhibitors of Cancer Stem Cells. [Related pubchem assays (depositor defined):AID2717, AID2721]; assay type: functional; conditions: Homo sapiens
[9] = biological target: T7, Corticotropin-releasing factor receptor 2/Corticotropin-releasing factor-binding protein (Homo sapiens, UniProt P24387+Q13324); assay: Dose Response confirmation of uHTS hits for small molecule antagonists of the CRF-binding protein and CRF-R2 receptor complex.; assay type: functional; conditions: read-out: IC50_Mean
T7 sequence (Q13324 whole entry): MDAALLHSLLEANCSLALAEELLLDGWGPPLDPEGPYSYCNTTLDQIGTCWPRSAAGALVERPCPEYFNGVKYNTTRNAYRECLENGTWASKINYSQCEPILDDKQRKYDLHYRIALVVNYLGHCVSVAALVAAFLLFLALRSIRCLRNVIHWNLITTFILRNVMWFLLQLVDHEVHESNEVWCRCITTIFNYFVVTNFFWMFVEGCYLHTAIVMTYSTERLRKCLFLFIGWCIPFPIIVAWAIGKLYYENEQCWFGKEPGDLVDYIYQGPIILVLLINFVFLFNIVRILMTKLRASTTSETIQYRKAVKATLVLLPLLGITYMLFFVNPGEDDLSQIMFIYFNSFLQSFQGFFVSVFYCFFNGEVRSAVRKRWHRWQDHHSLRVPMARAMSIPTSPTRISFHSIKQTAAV
T7 sequence (P24387 whole entry): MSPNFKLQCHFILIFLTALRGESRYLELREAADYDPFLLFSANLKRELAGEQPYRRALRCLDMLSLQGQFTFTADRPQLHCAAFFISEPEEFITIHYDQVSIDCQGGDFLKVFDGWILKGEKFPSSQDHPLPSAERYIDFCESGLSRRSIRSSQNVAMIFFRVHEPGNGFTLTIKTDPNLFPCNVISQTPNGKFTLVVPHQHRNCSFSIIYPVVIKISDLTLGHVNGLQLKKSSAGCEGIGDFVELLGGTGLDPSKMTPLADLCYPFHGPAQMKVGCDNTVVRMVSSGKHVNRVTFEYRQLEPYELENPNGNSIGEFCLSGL

[10] = biological target: T7, Corticotropin-releasing factor receptor 2/Corticotropin-releasing factor-binding protein; assay: activators of CRF receptor 2 with binding protein – uHTS hits, confirmation (AID 602473); assay type: functional; conditions: read-out: EC50_Mean

T1 sequence (P11940 whole entry): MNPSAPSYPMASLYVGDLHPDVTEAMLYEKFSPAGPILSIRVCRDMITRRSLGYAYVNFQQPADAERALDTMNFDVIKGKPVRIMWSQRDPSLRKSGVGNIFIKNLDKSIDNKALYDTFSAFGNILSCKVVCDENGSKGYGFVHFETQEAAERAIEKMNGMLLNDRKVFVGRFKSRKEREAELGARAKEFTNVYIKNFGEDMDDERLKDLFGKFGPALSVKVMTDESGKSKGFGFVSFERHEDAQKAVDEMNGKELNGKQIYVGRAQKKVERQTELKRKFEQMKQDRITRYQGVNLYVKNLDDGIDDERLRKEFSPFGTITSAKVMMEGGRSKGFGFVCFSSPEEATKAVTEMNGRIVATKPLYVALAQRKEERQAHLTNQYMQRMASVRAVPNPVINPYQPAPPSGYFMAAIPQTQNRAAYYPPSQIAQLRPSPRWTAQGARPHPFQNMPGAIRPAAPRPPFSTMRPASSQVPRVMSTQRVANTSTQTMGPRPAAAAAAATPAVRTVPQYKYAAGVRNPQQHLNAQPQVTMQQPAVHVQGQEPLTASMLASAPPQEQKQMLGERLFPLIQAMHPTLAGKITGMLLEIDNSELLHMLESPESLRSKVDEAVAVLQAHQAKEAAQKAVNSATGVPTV

O=C(NC(=S)N1CCCCCC1)c1ccccc1Cl
IC50 [1]: > 66 µM (inactive) | IC50 [2]: > 66 µM (inactive)

COc1ccc(-c2oc(NC(=O)CCl)c(C#N)c2-c2ccc(OC)cc2)cc1
EC50 (Streptococcus): > 150 µM (not active) | CC50 [3]: 10.1 µM (active) | EC50 [4]: 1.18 µM (active) | EC50 (Streptokinase A): 1.16 µM (active) | EC50 (Protein RecA): 0.67 µM (active) | AC50 [5]: 0.416 µM (active)

COc1ccc(C(=O)COC(=O)c2ccc([N+](=O)[O-])s2)cc1OC
IC50 (H9c2): > 79 µM (inactive) | IC50 (cells): 10.6 µM (active)

COC(=O)c1ccc(C(C(=O)NCc2ccccc2)N(Cc2cccs2)C(=O)c2cnccn2)cc1 (configuration not stated)
IC50 (H9c2): 8.82 µM (active)

CCC(CC)C(=O)Nc1cc(C)c2c(=O)oc3ccccc3c2n1
IC50 (H9c2): > 79 µM (inactive)

CCc1ccc(N2C(=O)NC(=O)/C(=C\c3cc(C)n(-c4cc(C(=O)O)cc(C(=O)O)c4)c3C)C2=O)cc1
EC50 [6]: > 300 µM (not active) | EC50 [7]: > 300 µM (not active)

CCC(ONc1ccccc1C(F)(F)F)(C(=O)NN(C)C)c1ccccc1 (configuration not stated)
IC50 (H9c2): 33.3 µM (inactive)

CCOC(=O)C1CCN(c2cc3c(cc2NC(=O)c2ccccc2Cl)n(C)c(=O)n3C)CC1
IC50 (H9c2): > 79 µM (inactive)

COc1ccc(C2=NN(C(=O)COC(=O)c3ccc(S(C)(=O)=O)c([N+](=O)[O-])c3)C(c3ccco3)C2)cc1 (configuration not stated)
CC50 [3]: 9.73 µM (active) | AC50 [8]: 1.52 µM (active)

CC(=O)c1ccc(NC(=O)COC(=O)c2c3c(nc4ccccc24)/C(=C\c2cccs2)CCC3)cc1
CC50 [3]: 12.4 µM (active) | AC50 [8]: 3.85 µM (active)

CC1CCN(C(=O)CSc2nncn2-c2ccccn2)CC1
IC50 [1]: > 66 µM (inactive) | IC50 [2]: > 66 µM (inactive)

CC(C)C1Nc2ccc(S(N)(=O)=O)cc2C2C=CCC21 (configuration not stated)
EC50 [6]: 52.4 µM (active) | EC50 [7]: 30.4 µM (active)

COc1ccc(OCC(O)Cn2c(Br)nc3c2c(=O)[nH]c(=O)n3C)cc1 (configuration not stated)
IC50 (H9c2): 16.4 µM (active)

Cc1cc2cc(CNC(=O)Cc3cccs3)ccc2n1C
IC50 [1]: > 66 µM (inactive) | IC50 [2]: > 66 µM (inactive)

CC(C)OCCCNC(=O)CCC(=O)NNc1nc2ccccc2c2nc(-c3ccccc3)nn12
IC50 (H9c2): 13.5 µM (active)

O=C(COc1ccc(Cl)cc1)NCc1nnc(O)c2ccccc12
IC50 (H9c2): > 79 µM (inactive)

CN(C)/C=C/C(=O)c1cnc(-c2ccccc2Cl)s1
EC50 [6]: > 300 µM (not active) | EC50 [7]: > 300 µM (not active)

Cc1ccccc1NC(=O)CSC(=O)c1ccccc1
IC50 [1]: > 66 µM (inactive) | IC50 [2]: > 66 µM (inactive)

N#CC1=C(N)OC2=C(C(=O)CC(c3ccccc3)C2)C1c1ccc2c(c1)OCO2 (configuration not stated)
IC50 [9]: > 47.1 µM (inactive) | EC50 [6]: > 300 µM (not active) | EC50 [10]: > 53 µM (inactive) | EC50 [7]: > 300 µM (not active)
